# Assay results: patent US9676820B2, “Method for inhibiting proliferation of high LIX1L-expressing tumor cell, and tumor cell proliferation-inhibiting peptide” (National University Corporation Hamamatsu University School …, priority 2013, dated 2017)
# Columns and labels:
# Assay type in all cases: cell-based
# 293 FLG/LIX1L [1] = test: MTT assay, 293 FLG/LIX1L cells
# Procedure: (§1) Specifically, first, cells plated in a 96-well microplate such that the density thereof became 5×10^3 cells/well were cultured for one night in a culture solution having the same composition as those in the reference examples. […] After the culturing, an MTT-containing PBS solution was added to the culture solution, and the mixture was incubated for 4 hours. Then, formazan which was generated by putting 100 μL of isopropanol (containing 34 (v/v) % of hydrochloric acid) into each of the wells was dissolved. The absorbance of each of the wells of the microplate at 570 nm was measured using a microplate reader. As controls, culturing was performed in the same manner except that no peptide was added to the strains, an MTT assay was performed thereon, and the absorbance at 570 nm was measured (untreated).
# (§2) In the method for measuring the viable cell counts, cells were cultured for 3 days similarly to Example 1 except that a 25 μM (10 μM for an HL-60 strain, a K562 strain, and a U937 strain) culture solution containing a control peptide or a peptide 1 was used, and the viable cell counts were measured. As a comparison, culturing was performed similarly to the above using a culture solution containing no peptide, and the viable cell counts were measured (untreated).
# (§3) In addition, in the method for performing an MTT assay, cells were cultured for 72 hours similarly to Example 2 except that a peptide to be added to a strain was set to a control peptide or a peptide 1 at 25 μM (10 μM for an HL-60 strain, a K562 strain, and a U937 strain), an MTT assay was performed thereon, and the absorbance at 570 nm was measured. As a comparison, culturing was performed similarly to the above using a culture solution containing no peptide, and the MTT assay was performed thereon (untreated).
# (§4) Specifically, the cells were cultured for 72 hours similarly to Example 2 except that a peptide to be added to a cell was set to a peptide 1, 2, 5, or 6, MTT assays were performed thereon, and the absorbance at 570 nm was measured. As a comparison, culturing was performed similarly to the above using a culture solution containing no peptide, and the MTT assay was performed thereon (untreated).
# (§5) Specifically, the cells were cultured for 72 hours similarly to Example 2 except that peptides to be added to cell strains were set to peptides 7 to 14, MTT assays were performed thereon, and the absorbance at 570 nm was measured. […]
# (§6) Specifically, the cells were cultured for 72 hours similarly to Example 2 except that a peptide to be added to a cell strain was set to a peptide 15 or 16, an MTT assay was performed thereon, and the absorbance at 570 nm was measured. […]
# KATO-III strain = test: MTT assay, KATO-III strain; details: MTT assay, 72 hours
# Procedure: (§7) Specifically, first, cells plated in a 96-well microplate such that the density thereof became 5×10^3 cells/well were cultured for one night in a culture solution having the same composition as those in the reference examples. Thereafter, the culture solution was exchanged with 100 μL of a culture solution of which the concentration of peptides is 0 μM to 100 μM for culturing for 72 hours. After the culturing, an MTT-containing PBS solution was added to the culture solution, and the mixture was incubated for 4 hours. Then, formazan which was generated by putting 100 μL of isopropanol (containing 34 (v/v) % of hydrochloric acid) into each of the wells was dissolved. The absorbance of each of the wells of the microplate at 570 nm was measured using a microplate reader. As controls, culturing was performed in the same manner except that no peptide was added to the strains, an MTT assay was performed thereon, and the absorbance at 570 nm was measured (untreated).
# 293 FLG/LIX1L [2] = test: Number of colonies formed, 293 FLG/LIX1L (Example 6); details: peptide 25 μM, cultured for 14 days
# Procedure: Specifically, 293 FLG was plated in one plate (6 wells/plate) and 293 FLG/LIX1L was plated in two plates such that the density of the cells became 1×10^4 cells/3.5 cm well. Among these, one of the plates in which 293 FLG was plated and the plate in which 293 FLG/LIX1L was plated were cultured for 14 days in a 10% vol. % FCS-containing DMEM culture medium. The remaining one of the plates in which 293 FLG/LIX1L was plated was cultured for 14 days in a 10% vol. % FCS-containing DMEM culture medium in which the peptide 1 was made to be included such that the concentration thereof became 25 μM. Each of the wells after the culturing was observed under a microscope, and the number of colonies formed was measured.
# 293 FLG = test: MTT assay, 293 FLG cells
# Procedure: as §1, §2, §3, §4, §5, §6
# HL-60 strain = test: Viable cell counts (Trypan blue staining), HL-60 strain; details: 5 μM peptide, vs untreated
# Procedure: (§8) Specifically, cells plated such that the density thereof became 1×10^4 cells/3.5 cm well for one plate (6 wells/plate) for each cell strain were cultured for one night in a culture solution having the same composition as those of the culture solutions described in the reference examples. After culturing of 1 well out of the 6 wells was completed, Trypan blue staining was performed on the 1 well, and viable cell counts were counted. The remaining 5 wells were cultured after exchanging the culture solution with a liquid mixture of a Lipofectamine (registered trademark) reagent (12.5 μL/well) and a culture solution (2 mL/well) of which the shRNA concentration became 2.5 μg/well. Then, Trypan blue staining was performed on 1 well 24 hours after the exchange of a culture medium, 1 well 48 hours after the exchange of a culture medium, and the remaining 1 well 72 hours after the exchange of a culture medium, and the viable cell counts were counted. As a control, the viable cell counts were measured (untreated) by performing the culturing similarly to the above except that a culture medium was exchanged with a culture solution to which no shRNA was added.
# Specifically, the viable cell counts were measured after culturing the cells similarly to Example 1 except that a 5 μM culture solution containing a control peptide, a peptide 1, or a peptide 2 was used instead of the culture solution (2 mL/well) of which the shRNA concentration was 2.5 μg/well. The viable cell counts were measured (untreated) by performing the culturing similarly to Example 1 using a culture solution containing no peptide 2, as a control.
# U937 strain = test: MTT assay, U937 strain
# Procedure: as §7
# Specifically, the cells were cultured for 72 hours similarly to Example 2 except that a peptide to be added to a cell strain was set to peptide 1, 3, or 4, or a control peptide, an MTT assay was performed thereon, and the absorbance at 570 nm was measured.
# as §2, §3
# RPMI8226 strain = test: Viable cell counts (Trypan blue staining), RPMI8226 strain; details: 5 μM peptide, up to 72 hours, vs untreated
# Procedure: as §8, with “added. […]” for “added.”
# MKN45 strain = test: MTT assay, MKN45 strain
# Procedure: as §1, §2, §3, §4, §5, §6
# [3] = 72 hours, peptide concentrations up to 250 μM
# [4] = peptide 25 μM, 3 days / 72 hours
smiles,measurement,setting,value
"CC(C)[C@H](NC(=O)[C@H](Cc1ccc(O)cc1)NC(=O)[C@H](CS)NC(=O)[C@@H](NC(=O)[C@H](Cc1ccc(O)cc1)NC(=O)[C@@H]1CCCN1C(=O)[C@@H]1CCCN1C(=O)[C@H](CO)NC(=O)[C@H](CC(N)=O)NC(=O)[C@H](CO)NC(=O)[C@@H]1CCCN1C(=O)CCCCCNC(=O)[C@H](CCCNC(=N)N)NC(=O)[C@H](CCCNC(=N)N)NC(=O)[C@H](CCCNC(=N)N)NC(=O)[C@H](CCC(N)=O)NC(=O)[C@H](CCCNC(=N)N)NC(=O)[C@H](CCCNC(=N)N)NC(=O)[C@H](CCCCN)NC(=O)[C@H](CCCCN)NC(=O)[C@H](CCCNC(=N)N)NC(=O)CNC(=O)[C@@H](N)Cc1ccc(O)cc1)C(C)C)C(N)=O [peptide 1, YGRKKRRQRRR-X-PSNSPPYVCYV-NH2]","cell proliferation (MTT assay, absorbance at 570 nm)",293 FLG/LIX1L [1]; [3],inhibited
same,cell proliferation (viable cell counts and MTT assay),293 FLG/LIX1L [1]; [4],inhibited
same,concentration at which a dominant effect of inhibiting the cell proliferation was recognized,KATO-III strain,greater than or equal to 25 μM
same,number of colonies formed,293 FLG/LIX1L [2],inhibited
same,"cell proliferation (MTT assay, absorbance at 570 nm)",293 FLG; [3],inhibited
same,cell proliferation (viable cell counts and MTT assay),293 FLG; [4],not inhibited
same,viable cell counts,HL-60 strain; after 72 hours,very small
same,viable cell counts,HL-60 strain; after culturing for 24 hours,decreased
same,"absorbance at 570 nm (MTT assay), cell proliferation","U937 strain; peptide 0 μM to 100 μM, 72 hours",inhibited
same,cell proliferation (viable cell counts and MTT assay),"U937 strain; peptide 10 μM, 3 days / 72 hours",inhibited
same,viable cell counts,RPMI8226 strain,the same as those in the untreated case
same,"cell proliferation (MTT assay, absorbance at 570 nm)",MKN45 strain; [3],inhibited
same,cell proliferation (viable cell counts and MTT assay),MKN45 strain; [4],inhibited
